From BindingDB's records for doi:10.1021/jm00168a025 (State University of New York, 1990) come the findings set out here.

Bounds are passed on as bounds.

The assay addresses Squalene monooxygenase (Sus scrofa). Kind of assay: Inhibition of pig liver squalene epoxidase.
As a reminder, the IC50 is the concentration that gives 50% inhibition. Read a low IC50 as greater potency. `CC(C)=CCC/C(C)=C/CC/C(C)=C/CC/C=C(\C)CC/C=C(\C)CCCCO` displayed an IC50 of 4 µM.

Take `CC(C)=CCC/C(C)=C/CC/C(C)=C/CC/C=C(\C)CC/C=C(\C)CCCO`: half-maximal inhibition (IC50) was put at 4 µM. On to `CC(C)=CCC/C(C)=C/CC/C(C)=C/CC/C=C(\C)CC/C=C(\C)CC/C=C(\C)CCCO`, for which the IC50 is > 400 µM. Regarding `CC(C)=CCC/C(C)=C/CC/C(C)=C/CCCO`, the IC50 was > 400 µM. As to `CC(C)=CCC/C(C)=C/CC/C(C)=C/CC/C=C(\C)CCCO`, inhibition was half-maximal at 100 µM (IC50).
